Results from ChEMBL document CHEMBL5316326, “Discovery of a Novel Covalent EZH2 Inhibitor Based on Tazemetostat Scaffold for the Treatment of Ovarian Cancer” (J Med Chem, 2023).
Active and inactive are the calls of the source. No cut-off for these calls is given here.

Columns and labels:
[1] = Protein binding in Sprague-Dawley rat plasma at 2 uM incubated for 5 hrs by equilibrium dialysis based LC-MS/MS analysis; assay type: ADME, cell-free; settings: read-out: PPB (converted)
[2] = Antiproliferative activity against human COV362 cells assessed as inhibition of cell proliferation incubated for 72 hrs by MTT assay; assay type: functional, cell-based; settings: COV362, 72 h
[3] = system: PA-1; assay: Induction of apoptosis in human PA-1 cells assessed as late apoptotic cells at 10 uM incubated for 48 hrs by AnnexinV-FITC/PI staining based flow cytometry analysis (Rvb= 3.09%); assay type: functional
[4] = target: Protein arginine N-methyltransferase 1 (Homo sapiens) (UniProt Q99873); assay: Inhibition of PRMT1 (unknown origin) at 1 to 10 uM by AlphaLlSA assay; settings: dose 1-10 µM
Sequence of Protein arginine N-methyltransferase 1 (Homo sapiens) (Q99873 whole entry, looked up): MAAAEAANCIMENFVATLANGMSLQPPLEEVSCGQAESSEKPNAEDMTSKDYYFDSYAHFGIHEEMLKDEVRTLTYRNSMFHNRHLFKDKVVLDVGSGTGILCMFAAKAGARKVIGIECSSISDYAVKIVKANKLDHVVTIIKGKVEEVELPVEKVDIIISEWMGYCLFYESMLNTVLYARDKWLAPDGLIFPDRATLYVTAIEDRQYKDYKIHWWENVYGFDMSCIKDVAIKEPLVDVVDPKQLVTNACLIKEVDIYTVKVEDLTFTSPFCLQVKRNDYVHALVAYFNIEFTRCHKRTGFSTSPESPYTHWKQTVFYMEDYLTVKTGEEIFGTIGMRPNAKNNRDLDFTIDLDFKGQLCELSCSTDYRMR

[5] = system: A2780; assay: Inhibition of colony formation in human A2780 cells assessed as reduction in size of colonies at 0.25 to 10 uM incubated for 14 days with medium change every 3 days by crystal violet staining method; assay type: functional, cell-based; settings: dose 0.25-10 µM, time 14.0 day
[6] = system: PA-1; assay: Induction of apoptosis in human PA-1 cells assessed as early apoptotic cells at 20 uM incubated for 48 hrs by AnnexinV-FITC/PI staining based flow cytometry analysis (Rvb= 6.89%); assay type: functional
[7] = target: N-lysine methyltransferase SMYD2 (Homo sapiens) (UniProt Q9NRG4); assay: Inhibition of SMYD2 (unknown origin) at 1 to 10 uM by AlphaLlSA assay; settings: dose 1-10 µM
Sequence of N-lysine methyltransferase SMYD2 (Homo sapiens) (Q9NRG4 whole entry): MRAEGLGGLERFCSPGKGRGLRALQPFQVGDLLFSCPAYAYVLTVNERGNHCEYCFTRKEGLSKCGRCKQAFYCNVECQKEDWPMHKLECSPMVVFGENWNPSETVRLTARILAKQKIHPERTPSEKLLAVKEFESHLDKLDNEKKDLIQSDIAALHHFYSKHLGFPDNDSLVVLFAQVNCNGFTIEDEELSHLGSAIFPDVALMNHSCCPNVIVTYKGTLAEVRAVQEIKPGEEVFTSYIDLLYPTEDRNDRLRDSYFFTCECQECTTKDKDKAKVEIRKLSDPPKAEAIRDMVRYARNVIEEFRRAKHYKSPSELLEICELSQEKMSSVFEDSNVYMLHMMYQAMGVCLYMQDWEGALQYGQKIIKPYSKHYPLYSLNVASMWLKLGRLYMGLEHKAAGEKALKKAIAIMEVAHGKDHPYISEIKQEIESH

[8] = system: A2780; assay: Antiproliferative activity against human A2780 cells assessed as inhibition of cell proliferation incubated for 72 hrs by MTT assay; assay type: functional, cell-based; settings: A2780, 72 h
[9] = Tmax in Sprague-Dawley rat at 5 mg/kg, iv and measured upto 24 hrs by LC-MS/MS analysis; assay type: ADME, organism-based; settings: in vivo
[10] = system: PA-1; assay: Induction of apoptosis in human PA-1 cells assessed as viable cells at 20 uM incubated for 48 hrs by AnnexinV-FITC/PI staining based flow cytometry analysis (Rvb= 88.53%); assay type: functional; settings: read-out: Activity
[11] = system: PA-1; assay: Antitumor activity against human PA-1 cells xenografted in BALB/C nude mouse assessed as tumor growth inhibition at 150 mg/kg,po BID for 21 days; assay type: functional; settings: PA-1, 504 h, time 21 day, read-out: TGI
[12] = system: PA-1; assay: Induction of apoptosis in human PA-1 cells assessed as late apoptotic cells at 20 uM incubated for 48 hrs by AnnexinV-FITC/PI staining based flow cytometry analysis (Rvb= 3.09%); assay type: functional
[13] = system: Histone-lysine N-methyltransferase EZH2 (Homo sapiens), Q15910 [Y641F]; assay: Inhibition of EZH2 […] mutant (unknown origin) at 1 nM by AlphaLlSA assay
Sequence of Histone-lysine N-methyltransferase EZH2 (Homo sapiens), Q15910 [Y641F] (Q15910 whole entry Y641F, looked up): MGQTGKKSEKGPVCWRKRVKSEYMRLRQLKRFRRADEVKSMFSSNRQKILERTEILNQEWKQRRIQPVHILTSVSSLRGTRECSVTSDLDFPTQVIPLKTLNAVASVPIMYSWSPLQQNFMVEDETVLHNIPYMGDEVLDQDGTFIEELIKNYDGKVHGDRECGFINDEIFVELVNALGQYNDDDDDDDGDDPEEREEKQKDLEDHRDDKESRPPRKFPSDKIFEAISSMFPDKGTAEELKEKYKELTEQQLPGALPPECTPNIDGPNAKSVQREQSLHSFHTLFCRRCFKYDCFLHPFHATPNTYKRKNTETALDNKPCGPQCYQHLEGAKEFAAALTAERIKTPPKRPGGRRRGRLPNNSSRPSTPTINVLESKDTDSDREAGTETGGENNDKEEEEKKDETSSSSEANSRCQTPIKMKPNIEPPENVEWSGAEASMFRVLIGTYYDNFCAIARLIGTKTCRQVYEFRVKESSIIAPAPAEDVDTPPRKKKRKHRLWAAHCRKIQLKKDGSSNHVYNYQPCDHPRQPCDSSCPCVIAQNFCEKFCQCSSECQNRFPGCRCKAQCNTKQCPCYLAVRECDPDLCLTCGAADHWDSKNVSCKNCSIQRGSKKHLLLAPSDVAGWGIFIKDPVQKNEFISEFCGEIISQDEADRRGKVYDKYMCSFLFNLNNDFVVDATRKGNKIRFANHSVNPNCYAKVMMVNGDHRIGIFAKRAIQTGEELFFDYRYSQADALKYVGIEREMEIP

[14] = system: PA-1; assay: Antiproliferative activity against human PA-1 cells assessed as inhibition of cell proliferation incubated for 3 to 5 days by MTT assay; assay type: functional, cell-based; settings: time 3-5 day, TDE = time-dependent effect
[15] = system: PA-1; assay: Antitumor activity against human PA-1 cells xenografted in BALB/C nude mouse assessed as reduction tumor cell proliferation at 75 to 150 mg/kg,po BID for 21 days by Ki67 staining based immunohistochemical analysis; assay type: functional, organism-based; settings: dose 75-150 mg/kg, time 21.0 day

Q: Which fraction unbound at 5 h, 2 µM [1] does the source give for `C=CC(=O)Nc1ccc(C)c(-c2cc(C(=O)NCc3c(C)cc(C)[nH]c3=O)c(C)c(N(CC)C3CCOCC3)c2)c1` here?
A: 0.0022

Q: And the IC50 [2]?
A: > 100 µM

Q: And the Activity [3]?
A: 6.16%

Q: What about the inhibition [4] of the same molecule?
A: inactive

Q: And the inhibition [5]?
A: Dose-Dependent Effect

Q: What about the Activity [6] of the same molecule?
A: 31.78%

Q: And the inhibition [7]?
A: inactive

Q: And the IC50 [8]?
A: 11.2 µM

Q: And the Tmax [9]?
A: 4.8 min

Q: What about the viability at 20 µM [10] of the same molecule?
A: 50.5%

Q: What about the inhibition in vivo at 150 mg/kg [11] of the same molecule?
A: 78.2%

Q: What about the Activity [12] of the same molecule?
A: 14.41%

Q: What about the inhibition [13] of the same molecule?
A: Active

Q: And the Activity [14]?
A: Tde

Q: And the Activity [15]?
A: Active
